From ChEMBL document CHEMBL3132788, “A new route towards fimbrolide analogues: importance of the exomethylene motif in LuxR dependent quorum sensing inhibition” (Medchemcomm, 2013)
Activity calls are given as the source filed them. The calls are words filed in the database; no cut-off is given here.

Tests used:
[1] = (§1) Antagonist activity at quorum sensing system in Escherichia coli NM522 carrying Vibrio fischeri luxR and luxICDBE promoter region assessed as inhibition of 3-oxo-C6HSL induced bioluminescence production after 4 to 5 hrs by luminometer
[2] = tested on: Escherichia coli; experiment: Agonist activity at quorum sensing system in Escherichia coli NM522 carrying Vibrio fischeri luxR and luxICDBE promoter region assessed as bioluminescence production after 4 to 5 hrs by luminometer
[3] = tested on: Escherichia coli; experiment: Growth inhibition of Escherichia coli NM522 carrying Vibrio fischeri luxR and luxICDBE promoter region at 20 uM to 20 mM after overnight incubation by disk diffusion assay; assay type: organism-based; conditions: in vivo
[4] = tested on: Escherichia coli; experiment: as §1

Activity [2]	inhibition [4]	Structure (SMILES)	IC50 [1]	Activity [3]
inactive		CCCCC1=CCOC1=O	> 200 µM	
inactive	inactive	CCCC(O)C1=CCOC1=O (centres undefined)		
inactive		C=C1C=C(C(O)CCC)C(=O)O1 (centres undefined)	52 µM	
inactive		CCCCCCC1=CCOC1=O	> 200 µM	
inactive		C=C1C=C(C(O)CCCCCCC)C(=O)O1 (centres undefined)	15 µM	
inactive	inactive	CCCCCCCC(O)C1=CCOC1=O (centres undefined)		

More lines, now with the values behind:

Structure (SMILES)	Activity [2]	inhibition [4]	IC50 [1]	Activity [3]
CCCC(O)C1=C/C(=C/Br)OC1=O (centres undefined)	inactive		14 µM	
CCCCCC(O)C1=C/C(=C/Br)OC1=O (centres undefined)	inactive		6 µM	
CCCCCCCC(O)C1=C/C(=C/Br)OC1=O (centres undefined)	inactive		25 µM	
CCCC(O)C1=C/C(=C\Br)OC1=O (centres undefined)	inactive		18 µM	
C=C1C=C(C(O)CCCCC)C(=O)O1 (centres undefined)	inactive		8 µM	
CCCCC1=C/C(=C/Br)OC1=O	inactive		0.6 µM	Non-toxic
CCCCCCC1=C/C(=C/Br)OC1=O	inactive		3 µM	
C=C1C=C(CCCC)C(=O)O1	inactive		> 200 µM	
C=C1C=C(CCCCCC)C(=O)O1	inactive		> 200 µM	
CCCCC1=C(Br)/C(=C/Br)OC1=O			45 µM	
CCCCCC(O)C1=CCOC1=O (centres undefined)	inactive	inactive		
